According to US20060199789A1, “medical composition” (Kyowa Hakko Kogyo Co., Ltd., priority 2003, published 2006):

Assays:
[1] = tested on: neutrophils in BALF; test: Antigen-induced respiratory neutrophil infiltration in rat (BALF); format: in vivo, BN rats; details: Compound (I) 30 μg/rat, budesonide 10 μg/rat; for Number of neutrophils: mean±standard error
Description: (§1) Inhibitory Effect of Combined Administration of Compound (I) and Steroid Agent on Antigen-Induced Respiratory Eosinophil and Neutrophil Infiltration in Rat
(§2) The test was conducted according to a known method (Pulmonary Pharmacology, vol. 8, pp. 83-89 (1995)).
(§3) In the test, 6-week-old male BN rats (Charles River Japan) were used. The rats were placed in aluminum cages each containing 5 to 6 rats in a breeding room at room temperature (19° C. to 25° C.) and a humidity of 30% to 70% under illumination for 12 hours a day (7 a.m. to 7 p.m.) and bred by free intake of commercially available feeds and water.
(§4) A preparation (Compound (I)-lactose preparation) containing 5 mg of lactose (produced by DVM Corporation) to 1 mg of Compound (I) was prepared, and a suspension for administering Compound (I) was prepared by suspending the Compound (I)-lactose preparation in a 0.125 wt/vol % tyloxapol aqueous solution (ALEVAIRE: registered trade mark, produced by Azwell Inc.) so that the concentration of Compound (I) was 150 μg/mL. Also, a suspension for administering budesonide was prepared by suspending lactose and budesonide (manufactured by Sigma Corporation) in a 0.125 wt/vol % tyloxapol aqueous solution so that the concentrations of lactose and budesonide were 750 μg/mL and 50 μg/mL, respectively. Furthermore, a suspension for combined administration was prepared by suspending budesonide and the Compound (I)-lactose preparation prepared as described above in a 0.125 wt/vol % tyloxapol aqueous solution so that the concentrations of budesonide and Compound (I) were 50 μg/mL and 150 μg/mL, respectively. On the other hand, a solvent for administration was prepared by dissolving lactose in a 0.125 wt/vol % tyloxapol aqueous solution so that the concentration was 7.5 mg/mL.
(§5) The rats were subcutaneously administered with 1 mL of a suspension of 1 mg of ovalbumin (OVA, manufactured by Sigma Co.) and 200 mg of aluminum hydroxide (manufactured by Wako Pure Chemicals Industries, Ltd.) suspended in 1 mL of physiological saline (manufactured by Otsuka Pharmaceutical Co., Ltd.). Then, 0.5 mL of a suspension of killed Bordetella pertussis cells (2×10^10 cells/1 mL physiological saline, manufactured by Kaken Pharmaceutical Co., Ltd.) was intraperitoneally administered to perform active sensitization. Fourteen days after the active sensitization, the rats were placed in a plastic chamber (30×50×30 cm), and an 1 wt/vol % OVA physiological saline solution was nebulized for 10 minutes using an ultrasonic nebulizer (manufactured by Omron Corporation) to perform antigen challenge. […]
(§6) The total number of the leukocytes in BALF was measured with an automatic leukocyte counter (manufactured by Nihon Kohden Corporation). […]

[2] = tested on: eosinophils in BALF; test: Antigen-induced respiratory eosinophil infiltration in rat (BALF); format: in vivo, BN rats; details: Compound (I) 30 μg/rat, budesonide 10 μg/rat; for Inhibition ratio (number of eosinophils) / Number of eosinophils: OVA-sensitized BN rats, intrabronchial 30 min before antigen challenge, BAL 24 h after; for Number of eosinophils: mean±standard error
Description: as §1, §2, §3, §4
as §5, with “challenge. Thirty minutes before the antigen-challenge, 100 μL of each of the suspensions for administration prepared as described above was intrabronchially administered to each of the right and left bronchi, i.e., administered in a total of 200 μL (medicine-administered group). Similarly, thirty minutes before the antigen challenge, a group which the solvent for administration was intrabronchially administered (solvent-administered group) was prepared. Also, a group which the solvent for administration was intrabronchially administered and a physiological saline was nebulized instead of the 1 wt/vol % OVA physiological saline solution (physiological saline-administered group) was prepared.” for “challenge.”
as §6

[3] = OVA-sensitized BN rats, intrabronchial 30 min before antigen challenge, BAL 24 h after

SMILES | Number of neutrophils [1, 3] | Inhibition ratio (number of eosinophils) [2] | Number of eosinophils [2] | Effect on the number of neutrophils in BALF (in words) ([1]; sole or combined) | Inhibition ratio (number of neutrophils) ([1]; OVA-sensitized BN rats, intrabronchial 30 min before antigen challenge, BAL 24 h after, N.E. = No effect) | Inhibitory effect against increases in the number of eosinophils in BALF (in words) ([2]; sole or combined)
CCCC1O[C@@H]2C[C@H]3[C@@H]4CCC5=CC(=O)C=C[C@]5(C)[C@H]4[C@@H](O)C[C@]3(C)[C@]2(C(=O)CO)O1 (stereo partly drawn) [Budesonide, budesonide, reference compound] | 2.50 ± 0.31 10^6/BALF | 54% | 0.26 ± 0.06 10^6/BALF | – | – | –
COc1ccc(C(=O)Cc2c(Cl)cncc2Cl)c2c1OC1(CCCC1)O2 [Compound (I), 7-[2-(3,5-dichloro-4-pyridyl)-1-oxoethyl]-4-methoxy-spiro[1,3-benzodioxol-2,1′-cyclopentane]] | 2.28 ± 0.27 10^6/BALF | 54% | 0.26 ± 0.08 10^6/BALF | not significantly affected | 3% | inhibitory effect against increases in the number of eosinophils was exhibited
